Key:
Experiment in all cases: relative viability (nuclei count vs DMSO), 5 days (fraction); higher = more cells survive
Ruxolitinib + Trametinib = compound: N#CC[C@H](C1CCCC1)n1cc(-c2ncnc3[nH]ccc23)cn1 [Ruxolitinib] + CC(=O)Nc1cccc(-n2c(=O)n(C3CC3)c(=O)c3c(Nc4ccc(I)cc4F)n(C)c(=O)c(C)c32)c1 [Trametinib] (partner 0.02 µM)
Procedure, shortened: (§1)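 Lung cancer cell lines in 1536-well plates were dosed by pin tool the day after seeding, either with one drug alone or with a fixed anchor-drug dose plus five library-drug doses (not always all listed) in √10 steps. After 5 days, cells were fixed and their nuclei stained in one step (final 0.05% Triton X-100, 1% formaldehyde, 1 ug/ml Hoechst), then counted on 4× images. Relative viability is the nuclei count in treated wells divided by that in vehicle wells. Values are medians of duplicate plates.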

VE-821 + Olaparib = compound: CS(=O)(=O)c1ccc(-c2cnc(N)c(C(=O)Nc3ccccc3)n2)cc1 [VE-821] + O=C(c1cc(Cc2n[nH]c(=O)c3ccccc23)ccc1F)N1CCN(C(=O)C2CC2)CC1 [Olaparib] (partner 8 µM)
Procedure, shortened: as §1

Vismodegib + Pictilisib = compound: CS(=O)(=O)c1ccc(C(=O)Nc2ccc(Cl)c(-c3ccccn3)c2)c(Cl)c1 [Vismodegib] + CS(=O)(=O)N1CCN(Cc2cc3nc(-c4cccc5[nH]ncc45)nc(N4CCOCC4)c3s2)CC1 [Pictilisib] (partner 1 µM)
Procedure, shortened: as §1

Vismodegib + Pemetrexed = compound: CS(=O)(=O)c1ccc(C(=O)Nc2ccc(Cl)c(-c3ccccn3)c2)c(Cl)c1 [Vismodegib] + Nc1nc2[nH]cc(CCc3ccc(C(=O)N[C@@H](CCC(=O)O)C(=O)O)cc3)c2c(=O)[nH]1 [Pemetrexed] (partner 0.2 µM)
Procedure, shortened: as §1

| Cell Line | relative viability (Ruxolitinib + Trametinib; first compound 0.253 µM) | relative viability (Ruxolitinib + Trametinib; first compound 0.8 µM) | relative viability (Ruxolitinib + Trametinib; first compound 2.53 µM) | relative viability (Ruxolitinib + Trametinib; first compound 8 µM) | relative viability (VE-821 + Olaparib; first compound 0.08 µM) | relative viability (VE-821 + Olaparib; first compound 0.253 µM) | relative viability (VE-821 + Olaparib; first compound 0.8 µM) | relative viability (VE-821 + Olaparib; first compound 2.53 µM) | relative viability (VE-821 + Olaparib; first compound 8 µM) | relative viability (Vismodegib + Pictilisib; first compound 0.08 µM) | relative viability (Vismodegib + Pictilisib; first compound 0.253 µM) | relative viability (Vismodegib + Pictilisib; first compound 0.8 µM) | relative viability (Vismodegib + Pictilisib; first compound 2.53 µM) | relative viability (Vismodegib + Pictilisib; first compound 8 µM) | relative viability (Vismodegib + Pemetrexed; first compound 0.08 µM) | relative viability (Vismodegib + Pemetrexed; first compound 0.253 µM) | relative viability (Vismodegib + Pemetrexed; first compound 0.8 µM) | relative viability (Vismodegib + Pemetrexed; first compound 2.53 µM) | relative viability (Vismodegib + Pemetrexed; first compound 8 µM) | relative viability (Ruxolitinib + Trametinib; first compound 0.08 µM) |
| --- | --- | --- | --- | --- | --- | --- | --- | --- | --- | --- | --- | --- | --- | --- | --- | --- | --- | --- | --- | --- |
| COR-L 105 | 0.472 | 0.424 | 0.381 | 0.432 | 0.708 | 0.638 | 0.434 | 0.561 | 0.484 | 0.383 | 0.371 | 0.445 | 0.401 | 0.453 | 1.03 | 1.16 | 1.08 | 1.03 | 1.16 |  |
| H3255 | 0.548 | 0.725 | 0.465 | 0.648 | 0.576 | 0.532 | 0.553 | 0.535 | 0.493 | 0.483 | 0.481 | 0.479 | 0.471 | 0.471 | 0.56 | 0.57 | 0.532 | 0.485 | 0.542 |  |
| NCI-H441 | 0.373 | 0.572 | 0.415 | 0.513 | 0.6 | 0.643 | 0.584 | 0.469 | 0.247 | 0.505 | 0.444 | 0.536 | 0.391 | 0.502 | 0.247 |  | 0.246 | 0.247 | 0.283 | 0.478 |
| NCI-H2347 | 0.272 | 0.287 | 0.247 | 0.334 | 0.574 | 0.531 | 0.598 | 0.618 | 0.635 | 0.563 | 0.664 | 0.637 | 0.609 | 0.717 | 0.423 | 0.423 | 0.459 | 0.435 | 0.458 | 0.296 |
| CAL-12T | 0.375 | 0.376 | 0.241 | 0.31 | 0.869 | 0.73 | 0.816 | 0.691 | 0.549 |  | 0.509 | 0.263 | 0.241 | 0.36 | 1.12 | 1.13 | 1.13 | 1.14 | 1.13 | 0.341 |
| HCC-827 | 0.545 | 0.563 | 0.469 | 0.784 | 0.735 | 0.753 | 0.136 | 0.734 | 0.711 | 1.22 | 1.06 | 0.834 | 0.854 | 0.97 | 0.246 | 0.283 | 0.563 | 0.284 | 0.267 |  |
| NCI-H520 | 0.663 | 0.823 | 0.609 | 0.574 | 0.321 | 0.386 | 0.307 | 0.275 | 0.228 | 0.332 | 0.254 | 0.271 | 0.274 | 0.309 | 0.743 | 0.619 | 0.827 | 0.709 | 0.666 | 0.87 |
| A-427 | 0.757 | 0.96 | 0.636 | 0.728 | 0.797 | 0.71 | 0.618 | 0.556 | 0.389 | 0.757 | 0.701 | 0.635 | 0.694 | 0.634 | 1.08 | 0.939 | 0.912 | 1.01 | 0.902 | 0.808 |
| NCI-H650 | 1.05 | 0.935 | 0.681 | 0.962 | 0.44 | 0.432 | 0.422 | 0.482 | 0.439 | 0.799 | 0.733 | 0.643 | 0.945 | 0.947 | 0.896 | 0.983 | 0.898 | 0.958 | 1.01 | 0.972 |

From the supplement of paper PMC10307832
